Assay results published in patent publication US20210101881A1 (Ancureall Pharmaceutical (Shanghai) Co., Ltd., priority 2018, published 2021).

The compounds below were run on MOLM13 cells (assay: Growth inhibition of CDK9-positive cell line MOLM13 in vitro (CCK8/MTT assay)). Conditions: Homo sapiens, MOLM-13, read-out: IC50 of the compound for inhibiting cell growth, MOLM13 cells.
Type: cell-based, human

Compound | IC50 [nM]
CN1CCN(c2cccc(Nc3ncc(Cl)c(-n4cc(C(N)=O)c5ccccc54)n3)c2)CC1 [Compound 118, 1-{5-chloro-2-[3-(4-methyl-piperazin-1-yl)-phenylamino]-pyrimidin-4-yl}-1H-indole-3-carboxamide] | 1 to 10

Same assay, conditions: Homo sapiens, MOLM-13; MOLM13 cells, cultured 3 to 6 days, CCK8; read-out: IC50 of the compound for inhibiting cell growth, MOLM13 cells

IC50 [nM] | Compound
1 to 10 | CN(C)CCN(C)c1cccc(Nc2nccc(-n3cc(C(N)=O)c4ccccc43)n2)c1 [Compound 110, 1-(2-{3-[(2-dimethylamino-ethyl)-methyl-amino]-phenylamino}-pyrimidin-4-yl)-1H-indole-3-carboxamide]
1 to 10 | NC(=O)c1cn(-c2ccnc(Nc3cccc(N4CCNCC4)c3)n2)c2ccccc12 [Compound 111, 1-[2-(3-piperazin-1-yl-phenylamino)-pyrimidin-4-yl]-1H-indole-3-carboxamide]
1 to 10 | CN1CCCN(c2cccc(Nc3nccc(-n4cc(C(N)=O)c5ccccc54)n3)c2)CC1 [Compound 112, 1-{2-[3-(4-methyl-[1,4]homopiperazin-1-yl)-phenylamino]-pyrimidin-4-yl}-1H-indole-3-carboxamide]
< 1 | CN1CCN(c2cccc(Nc3nccc(-n4cc(C(N)=O)c5ccccc54)n3)c2)CC1 [Compound 113, 1-{2-[3-(4-methyl-piperazin-1-yl)-phenylamino]-pyrimidin-4-yl}-1H-indole-3-carboxamide]
1 to 10 | CN1CCN(c2cc(F)cc(Nc3nccc(-n4cc(C(N)=O)c5ccccc54)n3)c2)CC1 [Compound 114, 1-{2-[3-fluoro-5-(4-methyl-piperazin-1-yl)-phenylamino]-pyrimidin-4-yl}-1H-indole-3-carboxamide]
10 to 100 | CN1CCN(c2cc(Nc3ncc(F)c(-n4cc(C(N)=O)c5ccccc54)n3)ccc2F)CC1 [Compound 116, 1-{5-fluoro-2-[4-fluoro-3-(4-methyl-piperazin-1-yl)-phenylamino]-pyrimidin-4-yl}-1H-indole-3-carboxamide]
10 to 100 | Cc1ccc(Nc2ncc(F)c(-n3cc(C(N)=O)c4ccccc43)n2)cc1N1CCN(C)CC1 [Compound 117, 1-{5-fluoro-2-[4-methyl-3-(4-methyl-piperazin-1-yl)-phenylamino]-pyrimidin-4-yl}-1H-indole-3-carboxamide]
10 to 100 | CN1CCN(c2cc(Nc3ncc(Cl)c(-n4cc(C(N)=O)c5ccccc54)n3)ccc2F)CC1 [Compound 119, 1-{5-chloro-2-[4-fluoro-3-(4-methyl-piperazin-1-yl)-phenylamino]-pyrimidin-4-yl}-1H-indole-3-carboxamide]
10 to 100 | CN1CCN(c2cc(Nc3ncc(Cl)c(-n4cc(C(N)=O)c5ccccc54)n3)ccc2Cl)CC1 [Compound 120, 1-{5-chloro-2-[4-chloro-3-(4-methyl-piperazin-1-yl)-phenylamino]-pyrimidin-4-yl}-1H-indole-3-carboxamide]
10 to 100 | Cc1ccc(Nc2ncc(Cl)c(-n3cc(C(N)=O)c4ccccc43)n2)cc1N1CCN(C)CC1 [Compound 121, 1-{5-chloro-2-[4-methyl-3-(4-methyl-piperazin-1-yl)-phenylamino]-pyrimidin-4-yl}-1H-indole-3-carboxamide]
10 to 100 | COc1ccc(Nc2ncc(Cl)c(-n3cc(C(N)=O)c4ccccc43)n2)cc1N1CCN(C)CC1 [Compound 122, 1-{5-chloro-2-[4-methoxy-3-(4-methyl-piperazin-1-yl)-phenylamino]-pyrimidin-4-yl}-1H-indole-3-carboxamide]
1 to 10 | COc1cnc(Nc2cccc(N3CCN(C)CC3)c2)nc1-n1cc(C(N)=O)c2ccccc21 [Compound 123, 1-{5-methoxy-2-[3-(4-methyl-piperazin-1-yl)-phenylamino]-pyrimidin-4-yl}-1H-indole-3-carboxamide]
1 to 10 | Cc1cnc(Nc2cccc(N3CCN(C)CC3)c2)nc1-n1cc(C(N)=O)c2ccccc21 [Compound 124, 1-{5-methyl-2-[3-(4-methyl-piperazin-1-yl)-phenylamino]-pyrimidin-4-yl}-1H-indole-3-carboxamide]
1 to 10 | COCCN1CCN(c2cccc(Nc3nccc(-n4cc(C(N)=O)c5ccccc54)n3)c2)CC1 [Compound 126, 1-(2-{3-[4-(2-methoxy-ethyl)-piperazin-1-yl]-phenylamino]-pyrimidin-4-yl}-1H-indole-3-carboxamide]
10 to 100 | C=CC(=O)N1CCN(c2cccc(Nc3nccc(-n4cc(C(N)=O)c5ccccc54)n3)c2)CC1 [Compound 127, 1-{2-[3-(4-acryloyl-piperazin-1-yl)-phenylamino]-pyrimidin-4-yl}-1H-indole-3-carboxamide]
10 to 100 | CCC(=O)N1CCN(c2cccc(Nc3nccc(-n4cc(C(N)=O)c5ccccc54)n3)c2)CC1 [Compound 128, 1-{2-[3-(4-propionyl-piperazin-1-yl)-phenylamino]-pyrimidin-4-yl}-1H-indole-3-carboxamide]
10 to 100 | CN(C)CCOc1cccc(Nc2nccc(-n3cc(C(N)=O)c4ccccc43)n2)c1 [Compound 129, 1-{2-[3-(2-dimethylamino-ethoxy)-phenylamino]-pyrimidin-4-yl}-1H-indole-3-carboxamide]

IC50 [nM] | Compound
> 1000 | COc1ccnc(Nc2nccc(-n3cc(C(N)=O)c4ccccc43)n2)c1 [Compound 131, 1-[2-(4-methoxy-pyridin-2-ylamino)-pyrimidin-4-yl]-1H-indole-3-carboxamide]
> 1000 | Cc1cc(C)nc(Nc2nccc(-n3cc(C(N)=O)c4ccccc43)n2)c1 [Compound 132, 1-[2-(4,6-dimethyl-pyridin-2-ylamino)-pyrimidin-4-yl]-1H-indole-3-carboxamide]
> 1000 | NC(=O)c1cn(-c2ccnc(Nc3ccc(N4CCNCC4)cn3)n2)c2ccccc12 [Compound 133, 1-[2-(5-piperazin-1-yl-pyridin-2-ylamino)-pyrimidin-4-yl]-1H-indole-3-carboxamide]
> 1000 | NC(=O)c1cn(-c2nc(Nc3ccc(N4CCNCC4)cn3)ncc2Cl)c2ccccc12 [Compound 134, 1-[5-chloro-2-(5-piperazin-1-yl-pyridin-2-ylamino)-pyrimidin-4-yl]-1H-indole-3-carboxamide]
100 to 1000 | Cc1cc(Nc2nccc(-n3cc(C(N)=O)c4cccnc43)n2)ccc1N1CCN(C)CC1 [Compound 136]
1 to 10 | NC(=O)c1cn(-c2nc(Nc3cccc(N4CCOCC4)c3)ncc2F)c2ccccc12 [Compound 137, 1-[5-fluoro-2-(3-morpholin-4-yl-phenylamino)-pyrimidin-4-yl]-1H-indole-3-carboxamide]
1 to 10 | NC(=O)c1nn(-c2ccnc(Nc3cccc(N4CCNCC4)c3)n2)c2ccccc12 [Compound 138, 1-[2-(3-piperazin-1-yl-phenylamino)-pyrimidin-4-yl]-1H-indazole-3-carboxamide]
1 to 10 | NC(=O)c1cn(-c2nc(Nc3cccc(N4CCC(N5CCOCC5)CC4)c3)ncc2F)c2ccccc12 [Compound 139, 1-{5-fluoro-2-[3-(4-morpholin-4-yl-piperidin-1-yl)-phenylamino]-pyrimidin-4-yl}-1H-indole-3-carboxamide]
< 1 | CCN1CCN(c2cccc(Nc3ncc(F)c(-n4cc(C(N)=O)c5ccccc54)n3)c2)CC1 [Compound 142, 1-{2-[3-(4-ethyl-piperazin-1-yl)-phenylamino]-5-fluoro-pyrimidin-4-yl}-1H-indole-3-carboxamide]
10 to 100 | CN1CCN(Cc2cccc(Nc3ncc(F)c(-n4cc(C(N)=O)c5ccccc54)n3)c2)CC1 [Compound 143, 1-{5-fluoro-2-[3-(4-methyl-piperazin-1-ylmethyl)-phenylamino]-pyrimidin-4-yl}-1H-indole-3-carboxamide]
10 to 100 | CCC(C)N1CCN(c2cccc(Nc3ncc(F)c(-n4cc(C(N)=O)c5ccccc54)n3)c2)CC1 (stereo not shown) [Compound 145, 1-{2-[3-(4-sec-butyl-piperazin-1-yl)-phenylamino]-5-fluoro-pyrimidin-4-yl}-1H-indole-3-carboxamide]
10 to 100 | NC(=O)c1cn(-c2nc(Nc3cccc(N4CCNCC4)c3)ncc2F)c2ccccc12 [Compound 146]
< 1 | CC(C)(C)N1CCN(c2cccc(Nc3ncc(F)c(-n4cc(C(N)=O)c5ccccc54)n3)c2)CC1 [Compound 147, 1-{2-[3-(4-tert-butyl-piperazin-1-yl)-phenylamino]-5-fluoro-pyrimidin-4-yl}-1H-indole-3-carboxamide]
1 to 10 | CN1CCC(N2CCN(c3cccc(Nc4ncc(F)c(-n5cc(C(N)=O)c6ccccc65)n4)c3)CC2)CC1 [Compound 148, 1-(5-fluoro-2-{3-[4-(1-methyl-piperidin-4-yl)-piperazin-1-yl]-phenylamino}-pyrimidin-4-yl)-1H-indole-3-carboxamide]
1 to 10 | COc1ccc2c(c1)c(C(N)=O)cn2-c1nc(Nc2cccc(N3CCN(C4CCOCC4)CC3)c2)ncc1F [Compound 149, 1-(5-fluoro-2-{3-[4-(tetrahydro-pyran-4-yl)-piperazin-1-yl]-phenylamino}-pyrimidin-4-yl)-5-methoxy-1H-indole-3-carboxamide]
1 to 10 | NC(=O)c1cn(-c2nc(Nc3cccc(N4CCN(C5CCOC5)CC4)c3)ncc2F)c2ccccc12 (stereo not shown) [Compound 150, 1-(5-fluoro-2-{3-[4-(tetrahydro-furan-3-yl)-piperazin-1-yl]-phenylamino}-pyrimidin-4-yl)-1H-indole-3-carboxamide]
1 to 10 | COc1ccc2c(c1)c(C(N)=O)cn2-c1nc(Nc2cccc(N3CCN(C4CCOC4)CC3)c2)ncc1F (stereo not shown) [Compound 151, 1-(5-fluoro-2-{3-[4-(tetrahydro-furan-3-yl)-piperazin-1-yl]-phenylamino}-pyrimidin-4-yl)-5-methoxy-1H-indole-3-carboxamide]

Compound | IC50 [nM]
NC(=O)c1cn(-c2ccnc(Nc3ccccn3)n2)c2ccccc12 [Compound 130, 1-[2-(pyridin-2-ylamino)-pyrimidin-4-yl]-1H-indole-3-carboxamide] | > 1000
NC(=O)c1cn(-c2ccnc(Nc3ccc(N4CCNCC4)cc3)n2)c2ncccc12 [Compound 135, 1-[2-(4-piperazin-1-yl-phenylamino)-pyrimidin-4-yl]-1H-pyrrolo[2,3-b]pyridine-3-carboxamide] | 100 to 1000
